# Assay results published in paper PMC6934184, “Selective DNA-PKcs inhibition extends the therapeutic index of localized radiotherapy and chemotherapy” (The Journal of Clinical Investigation, 2019).
# Molecular target: T1, FGFR1 (Homo sapiens, UniProt P11362)
# T1 construct: purchased Thermo Fisher Scientific (Life Technologies) SelectScreen
# Experiment: SelectScreen Z'LYTE
# Type: biochemical
# How it was run: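 NU5455 was profiled across the SelectScreen Broad panel of kinase activity and binding assays. Z'LYTE reactions such as CSF1R ran at apparent Km ATP, while the Adapta CAMK1 assay used ATP listed as 10. Values are given as percent.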
# T1 sequence (P11362 22-822): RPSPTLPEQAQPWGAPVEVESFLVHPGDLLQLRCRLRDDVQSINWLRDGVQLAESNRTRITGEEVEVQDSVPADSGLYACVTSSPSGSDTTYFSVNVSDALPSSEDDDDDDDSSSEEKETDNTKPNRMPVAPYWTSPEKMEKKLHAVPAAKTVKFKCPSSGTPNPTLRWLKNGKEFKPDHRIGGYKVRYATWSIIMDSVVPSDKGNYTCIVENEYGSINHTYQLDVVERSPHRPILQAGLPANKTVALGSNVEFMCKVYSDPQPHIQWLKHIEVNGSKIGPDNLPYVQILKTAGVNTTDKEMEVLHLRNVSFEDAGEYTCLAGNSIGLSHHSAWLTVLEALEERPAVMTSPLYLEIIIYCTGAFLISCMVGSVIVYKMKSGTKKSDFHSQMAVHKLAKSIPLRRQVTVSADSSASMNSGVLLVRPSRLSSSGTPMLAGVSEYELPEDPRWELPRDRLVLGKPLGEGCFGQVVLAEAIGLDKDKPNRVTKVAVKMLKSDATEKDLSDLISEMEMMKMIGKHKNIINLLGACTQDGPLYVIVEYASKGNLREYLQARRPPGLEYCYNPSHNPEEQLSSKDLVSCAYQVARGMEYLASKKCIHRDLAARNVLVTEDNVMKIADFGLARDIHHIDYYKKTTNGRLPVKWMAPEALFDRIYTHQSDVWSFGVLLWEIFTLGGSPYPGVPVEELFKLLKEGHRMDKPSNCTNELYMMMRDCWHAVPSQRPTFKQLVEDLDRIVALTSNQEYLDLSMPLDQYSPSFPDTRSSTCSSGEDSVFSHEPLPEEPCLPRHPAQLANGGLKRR
smiles,measurement,value
CN(C(=O)CN1CCOCC1)c1ccc2sc3c(-c4cccc5c(=O)cc(N6CC7CCC(C6)O7)oc45)cccc3c2c1 [NU5455],inhibition at 1 µM,4.7%
